# Laboratory results as given in patent US11629354B2, “Grain with increased nicotianamine” (The United States of America, as represented by the …, priority 2020, dated 2023).
# Assays:
# Format in all cases: in vivo, chicken
# [1] = tested on: Lactobacillus, Bifidobacterium, Escherichia, and Clostridium; assay: Intraamniotic administration: cecal microbial population analysis
# Text: To generate extracts for administration, wheat flours (CE-OsNAS2, hereinafter “biofortified”; and NS, hereinafter “control”) were mixed in dH2O (50 g/L), filtered (600 μm) and centrifuged, and the resulting supernatant was dialyzed (MWCO 12-14 kDa, Medicell International Ltd., London, UK) exhaustively against dH2O (48 hrs). The dialysate was lyophilized, and the resulting powder dissolved in 18MΩ H2O (0.05 g/mL) forming the white wheat flour extracts for intra-amniotic administration. Iron solutions were prepared by combining an Fe standard (1000 μg/mL, 2% HCl, High-Purity Standards, Charleston, S.C., USA) with either 18MΩ H2O (Fe), or 1.6 mM NA (Toronto Research Chemicals Inc., Toronto, Canada) dissolved in 18MΩ H2O (Fe-NA). […]
# Microbial population analysis. Lactobacillus, Bifidobacterium, Escherichia, and Clostridium density in intraamniotic administration treatment groups was determined as follows: in brief, cecal contents were homogenized with phosphate-buffered saline (PBS, 9 ml), centrifuged and the pellet resuspended in ethylenediaminetetraacetic acid (EDTA, 50 mM) and treated (37° C., 45 min) with lysozyme (10 mg/mL, Sigma Aldrich CO., St. Louis, Mo., USA). […]
# intestinal villi = assay: Intraamniotic administration: intestinal functionality (goblet cell number, villi length and width)
# Text: (§1) To generate extracts for administration, wheat flours (CE-OsNAS2, hereinafter “biofortified”; and NS, hereinafter “control”) were mixed in dH2O (50 g/L), filtered (600 μm) and centrifuged, and the resulting supernatant was dialyzed (MWCO 12-14 kDa, Medicell International Ltd., London, UK) exhaustively against dH2O (48 hrs). The dialysate was lyophilized, and the resulting powder dissolved in 18MΩ H2O (0.05 g/mL) forming the white wheat flour extracts for intra-amniotic administration. Iron solutions were prepared by combining an Fe standard (1000 μg/mL, 2% HCl, High-Purity Standards, Charleston, S.C., USA) with either 18MΩ H2O (Fe), or 1.6 mM NA (Toronto Research Chemicals Inc., Toronto, Canada) dissolved in 18MΩ H2O (Fe-NA). The Fe-EDTA solution was achieved by combining ferric nitrate (Fe(NO3)3 9H2O, Sigma, St. Louis, Mo., USA) with hydroxyethyl ethylenediamine triacetic acid (H3HEDTA, Sigma, St. Louis, Mo., USA) dissolved in sodium hydroxide (NaOH, Sigma, St. Louis, Mo., USA) to represent an anionic chelate of dissolved NaFeEDTA with final Fe concentration of 77 μM.
# For intraamniotic administration, eggs (n=40) containing viable embryos were weighed and randomly assigned to seven groups (n≥5) based on weight distribution. At day 17 of incubation, extracts/Fe solutions (1 mL) were injected into the amniotic fluid via a 21-gauge needle for the seven treatment groups as follows: (1) non-injected (NI); (2) 18MΩ H2O (H2O); (3) Fe solution (Fe); (4) Fe-EDTA solution (Fe-EDTA); (5) Fe-NA solution (Fe-NA); (6) Control white flour extract (C WF); (7) Biofortified white flour extract (B WF) and eggs were subsequently incubated for four days until hatch. Chicks were euthanized by CO2 exposure after hatching and all tissues were collected.
# Intestinal functionality and short-chain fatty acid (SCFA) analysis. […] Samples were quantified via GC-MS using a TRACE™ 1310 gas chromatograph (Thermo Fisher Scientific, Waltham, Mass., USA) and a TraceGOLD™ TG-WaxMS A column (Thermo Fisher Scientific, Waltham, Mass., USA).
# [2] = Intraamniotic administration: Fe and Zn concentration in blood serum and liver; details: relative to unchelated Fe (Fe) and non-injected groups
# Text: as §1
# Cornish-cross fertile broiler eggs (n=70) were obtained from a commercial hatchery (Moyer's chicks, Quakertown, Pa., USA) and incubated until hatching. All methods were performed in accordance with the relevant guidelines and regulations. […]
# [3] = relative to other treatment groups
substance,measurement,setting,value
Fe-EDTA,abundance of Clostridium in cecum,[1]; relative to C-WF,significantly increased
same,abundance of Escherichia in cecum,[1]; relative to Fe-NA,significantly increased
same,Intestinal villi width,intestinal villi; relative to all treatment groups,increased significantly
same,Goblet cell number in intestinal villi,intestinal villi; [3],decreased significantly
same,Intestinal villi length,intestinal villi; [3],increased significantly
same,Blood serum Fe concentration,[2],significantly elevated
